Measurements as given in ChEMBL document CHEMBL5303765, “Data for DCP probe BAY-7081” (2023).

Legend:
Settings in all cases: for ΔTm: Compound concentration 10.0 uM
[1] = biological target: STE20-like serine/threonine-protein kinase (Homo sapiens) (UniProt Q9H2G2); test: SLK SGC Tm panel (DSF)
[2] = biological target: Casein kinase I isoform delta (Homo sapiens) (UniProt P48730); test: CSNK1D SGC Tm panel (DSF)
[3] = biological target: Tyrosine-protein kinase Fes/Fps (Homo sapiens) (UniProt P07332); test: FES SGC Tm panel (DSF)
[4] = biological target: T1, Ribosyldihydronicotinamide dehydrogenase [quinone] (Homo sapiens) (UniProt P16083); test: NQO2 SGC Tm panel (DSF)
T1 sequence (whole entry): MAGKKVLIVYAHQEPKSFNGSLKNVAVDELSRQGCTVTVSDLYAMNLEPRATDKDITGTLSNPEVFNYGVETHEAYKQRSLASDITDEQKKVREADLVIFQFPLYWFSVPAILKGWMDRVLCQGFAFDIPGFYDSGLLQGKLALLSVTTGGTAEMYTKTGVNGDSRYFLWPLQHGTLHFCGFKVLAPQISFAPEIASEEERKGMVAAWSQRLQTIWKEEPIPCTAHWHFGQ

[5] = biological target: Serine/threonine-protein kinase PAK 4 (Homo sapiens) (UniProt O96013); test: PAK4 SGC Tm panel (DSF)
[6] = biological target: T2, Mitogen-activated protein kinase kinase kinase 5 (Homo sapiens) (UniProt Q99683); test: MAP3K5 SGC Tm panel (DSF)
T2 sequence (whole entry): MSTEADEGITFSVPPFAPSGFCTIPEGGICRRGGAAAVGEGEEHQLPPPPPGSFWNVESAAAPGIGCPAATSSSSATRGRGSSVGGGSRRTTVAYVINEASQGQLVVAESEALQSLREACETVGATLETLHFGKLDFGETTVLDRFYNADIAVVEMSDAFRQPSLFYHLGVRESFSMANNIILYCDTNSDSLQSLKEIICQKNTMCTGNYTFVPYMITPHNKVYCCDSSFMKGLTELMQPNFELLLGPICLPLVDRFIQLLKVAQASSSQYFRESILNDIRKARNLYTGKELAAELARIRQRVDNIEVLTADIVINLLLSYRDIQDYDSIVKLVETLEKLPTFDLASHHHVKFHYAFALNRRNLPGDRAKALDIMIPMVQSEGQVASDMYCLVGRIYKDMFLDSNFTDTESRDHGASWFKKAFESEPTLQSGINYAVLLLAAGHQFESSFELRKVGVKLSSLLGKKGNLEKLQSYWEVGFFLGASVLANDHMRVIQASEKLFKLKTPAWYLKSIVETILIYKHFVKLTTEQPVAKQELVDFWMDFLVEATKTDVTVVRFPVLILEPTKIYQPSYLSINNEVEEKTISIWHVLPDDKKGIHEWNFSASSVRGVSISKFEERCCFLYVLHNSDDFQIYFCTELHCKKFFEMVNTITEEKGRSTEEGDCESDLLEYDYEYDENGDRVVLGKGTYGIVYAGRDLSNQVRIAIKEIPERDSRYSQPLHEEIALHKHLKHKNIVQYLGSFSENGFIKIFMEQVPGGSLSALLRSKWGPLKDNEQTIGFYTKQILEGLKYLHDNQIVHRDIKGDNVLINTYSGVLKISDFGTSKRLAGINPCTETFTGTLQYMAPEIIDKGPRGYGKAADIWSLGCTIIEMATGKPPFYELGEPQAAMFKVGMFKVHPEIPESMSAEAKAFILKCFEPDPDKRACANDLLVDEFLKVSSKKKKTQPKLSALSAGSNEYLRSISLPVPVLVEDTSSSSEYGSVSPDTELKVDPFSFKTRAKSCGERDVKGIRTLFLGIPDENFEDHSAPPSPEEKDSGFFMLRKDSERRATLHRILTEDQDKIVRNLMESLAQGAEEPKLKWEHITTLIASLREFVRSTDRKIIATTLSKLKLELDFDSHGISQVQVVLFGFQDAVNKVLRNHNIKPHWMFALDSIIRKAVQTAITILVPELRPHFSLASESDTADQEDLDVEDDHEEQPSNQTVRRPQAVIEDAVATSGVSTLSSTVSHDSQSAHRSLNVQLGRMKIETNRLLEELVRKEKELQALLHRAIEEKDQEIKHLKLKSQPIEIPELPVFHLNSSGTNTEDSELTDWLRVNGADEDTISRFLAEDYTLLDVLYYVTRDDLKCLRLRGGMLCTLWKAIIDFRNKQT

[7] = biological target: T3, Tyrosine-protein kinase Mer (Homo sapiens) (UniProt Q12866); test: MERTK SGC Tm panel (DSF)
T3 sequence (whole entry): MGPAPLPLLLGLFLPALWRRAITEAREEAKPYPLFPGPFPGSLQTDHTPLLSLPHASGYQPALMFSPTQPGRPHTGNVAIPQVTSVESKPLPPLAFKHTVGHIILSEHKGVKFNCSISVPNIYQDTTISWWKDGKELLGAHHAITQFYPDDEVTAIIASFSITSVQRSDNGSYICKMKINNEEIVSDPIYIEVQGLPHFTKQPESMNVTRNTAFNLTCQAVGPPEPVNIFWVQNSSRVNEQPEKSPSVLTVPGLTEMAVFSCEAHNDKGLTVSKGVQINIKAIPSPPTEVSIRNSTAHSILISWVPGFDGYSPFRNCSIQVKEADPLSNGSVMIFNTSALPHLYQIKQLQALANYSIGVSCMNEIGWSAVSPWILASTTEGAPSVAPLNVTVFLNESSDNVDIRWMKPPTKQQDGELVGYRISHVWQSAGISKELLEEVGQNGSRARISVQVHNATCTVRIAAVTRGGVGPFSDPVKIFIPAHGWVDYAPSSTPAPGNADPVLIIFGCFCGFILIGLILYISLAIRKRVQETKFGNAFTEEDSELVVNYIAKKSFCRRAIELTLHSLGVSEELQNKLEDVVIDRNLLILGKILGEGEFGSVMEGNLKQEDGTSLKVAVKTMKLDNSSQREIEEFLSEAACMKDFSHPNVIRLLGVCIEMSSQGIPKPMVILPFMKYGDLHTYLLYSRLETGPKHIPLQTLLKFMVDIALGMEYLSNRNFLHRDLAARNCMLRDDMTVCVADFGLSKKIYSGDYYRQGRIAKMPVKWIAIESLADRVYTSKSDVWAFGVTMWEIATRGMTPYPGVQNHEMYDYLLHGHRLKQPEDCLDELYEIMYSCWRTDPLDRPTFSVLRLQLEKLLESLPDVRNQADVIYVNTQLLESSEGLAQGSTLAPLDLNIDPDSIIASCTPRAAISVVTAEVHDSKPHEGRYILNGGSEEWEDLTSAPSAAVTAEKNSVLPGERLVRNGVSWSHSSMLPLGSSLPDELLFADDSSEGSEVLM

Serine/threonine-protein kinase PAK 4 (Homo sapiens), sequence (O96013 whole entry, looked up): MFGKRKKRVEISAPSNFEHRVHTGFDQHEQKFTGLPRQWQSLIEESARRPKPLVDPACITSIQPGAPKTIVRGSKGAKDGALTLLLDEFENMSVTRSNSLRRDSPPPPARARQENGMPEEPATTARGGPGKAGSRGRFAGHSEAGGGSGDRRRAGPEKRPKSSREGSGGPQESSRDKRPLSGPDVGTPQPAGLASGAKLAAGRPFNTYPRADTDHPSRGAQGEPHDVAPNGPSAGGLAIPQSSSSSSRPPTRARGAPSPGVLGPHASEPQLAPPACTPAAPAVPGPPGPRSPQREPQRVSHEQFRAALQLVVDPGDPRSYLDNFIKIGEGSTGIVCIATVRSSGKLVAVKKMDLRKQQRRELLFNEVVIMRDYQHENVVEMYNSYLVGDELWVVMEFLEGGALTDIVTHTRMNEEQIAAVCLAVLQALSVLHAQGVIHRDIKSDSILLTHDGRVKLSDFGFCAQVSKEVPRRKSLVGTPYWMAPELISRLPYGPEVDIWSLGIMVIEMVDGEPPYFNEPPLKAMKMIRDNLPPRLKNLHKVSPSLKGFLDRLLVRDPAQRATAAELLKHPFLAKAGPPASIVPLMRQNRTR
STE20-like serine/threonine-protein kinase (Homo sapiens), sequence (Q9H2G2 whole entry, looked up, canonical isoform): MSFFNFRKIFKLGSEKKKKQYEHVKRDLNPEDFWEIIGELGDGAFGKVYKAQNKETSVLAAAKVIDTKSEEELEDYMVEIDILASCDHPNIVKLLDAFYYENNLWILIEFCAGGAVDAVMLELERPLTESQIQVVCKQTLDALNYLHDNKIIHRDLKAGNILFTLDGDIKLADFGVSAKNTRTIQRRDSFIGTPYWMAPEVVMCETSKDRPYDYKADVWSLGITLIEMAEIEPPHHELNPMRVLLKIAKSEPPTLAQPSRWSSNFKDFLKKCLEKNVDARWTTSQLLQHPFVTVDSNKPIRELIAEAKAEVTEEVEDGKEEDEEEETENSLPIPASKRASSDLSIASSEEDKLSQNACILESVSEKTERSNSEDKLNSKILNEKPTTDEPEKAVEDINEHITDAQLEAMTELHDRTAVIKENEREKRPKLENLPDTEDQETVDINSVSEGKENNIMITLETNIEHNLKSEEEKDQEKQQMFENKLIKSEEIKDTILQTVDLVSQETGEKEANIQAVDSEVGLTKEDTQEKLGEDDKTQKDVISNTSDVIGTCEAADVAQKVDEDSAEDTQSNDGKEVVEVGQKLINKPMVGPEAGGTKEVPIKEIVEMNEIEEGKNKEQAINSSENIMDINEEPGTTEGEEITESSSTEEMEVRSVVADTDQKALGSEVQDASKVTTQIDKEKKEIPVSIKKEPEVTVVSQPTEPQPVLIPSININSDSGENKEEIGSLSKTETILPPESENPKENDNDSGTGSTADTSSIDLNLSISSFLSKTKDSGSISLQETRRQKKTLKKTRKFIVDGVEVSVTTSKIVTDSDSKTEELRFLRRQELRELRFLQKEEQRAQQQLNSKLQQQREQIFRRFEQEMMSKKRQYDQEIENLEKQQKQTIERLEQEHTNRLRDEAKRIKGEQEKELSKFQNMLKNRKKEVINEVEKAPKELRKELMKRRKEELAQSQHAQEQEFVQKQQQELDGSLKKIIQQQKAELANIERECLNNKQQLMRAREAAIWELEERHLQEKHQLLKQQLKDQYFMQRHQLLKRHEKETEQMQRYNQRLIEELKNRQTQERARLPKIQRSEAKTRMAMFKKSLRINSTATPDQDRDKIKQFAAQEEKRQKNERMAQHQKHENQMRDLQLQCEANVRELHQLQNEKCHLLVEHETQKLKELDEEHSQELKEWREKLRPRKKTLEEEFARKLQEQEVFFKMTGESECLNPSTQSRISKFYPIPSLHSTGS
Casein kinase I isoform delta (Homo sapiens), sequence (P48730 whole entry, looked up, canonical isoform): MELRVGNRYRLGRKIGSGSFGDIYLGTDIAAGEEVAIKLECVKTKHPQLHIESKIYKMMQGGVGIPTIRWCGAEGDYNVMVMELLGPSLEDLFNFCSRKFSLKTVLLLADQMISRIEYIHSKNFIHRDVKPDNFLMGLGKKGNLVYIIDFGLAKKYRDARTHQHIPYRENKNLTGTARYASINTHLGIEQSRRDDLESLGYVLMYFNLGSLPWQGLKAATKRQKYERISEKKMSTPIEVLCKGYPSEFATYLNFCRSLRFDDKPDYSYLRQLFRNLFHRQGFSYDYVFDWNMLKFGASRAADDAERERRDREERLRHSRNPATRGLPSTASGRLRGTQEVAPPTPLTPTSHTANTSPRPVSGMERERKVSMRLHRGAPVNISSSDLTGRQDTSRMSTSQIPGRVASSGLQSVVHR
Tyrosine-protein kinase Fes/Fps (Homo sapiens), sequence (P07332 whole entry): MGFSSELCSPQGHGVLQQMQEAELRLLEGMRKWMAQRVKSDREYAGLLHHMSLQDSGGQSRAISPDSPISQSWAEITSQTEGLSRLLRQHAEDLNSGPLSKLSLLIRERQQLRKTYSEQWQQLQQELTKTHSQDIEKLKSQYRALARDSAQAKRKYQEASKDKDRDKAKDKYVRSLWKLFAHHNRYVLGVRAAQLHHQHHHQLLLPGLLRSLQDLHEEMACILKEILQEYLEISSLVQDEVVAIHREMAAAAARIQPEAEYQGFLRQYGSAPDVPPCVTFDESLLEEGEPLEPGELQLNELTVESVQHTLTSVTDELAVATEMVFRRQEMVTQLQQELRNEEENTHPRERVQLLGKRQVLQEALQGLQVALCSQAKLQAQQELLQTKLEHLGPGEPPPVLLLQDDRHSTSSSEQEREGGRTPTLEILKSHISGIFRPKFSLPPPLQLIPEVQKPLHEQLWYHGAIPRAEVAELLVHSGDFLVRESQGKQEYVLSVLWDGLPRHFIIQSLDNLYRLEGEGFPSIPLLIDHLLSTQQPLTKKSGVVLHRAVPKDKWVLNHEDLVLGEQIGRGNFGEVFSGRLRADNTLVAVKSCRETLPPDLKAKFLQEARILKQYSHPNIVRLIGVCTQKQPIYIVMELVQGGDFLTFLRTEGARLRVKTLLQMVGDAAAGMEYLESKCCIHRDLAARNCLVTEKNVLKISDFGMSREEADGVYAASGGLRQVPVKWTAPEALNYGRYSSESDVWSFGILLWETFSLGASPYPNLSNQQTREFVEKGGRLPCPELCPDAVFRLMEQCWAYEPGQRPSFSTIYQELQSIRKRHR

Row | SMILES | delta Tm Staurosporine positive control [1] | ΔTm [1] | delta Tm Staurosporine positive control [2] | ΔTm [2] | delta Tm Staurosporine positive control [3] | ΔTm [3] | delta Tm Staurosporine positive control [4] | ΔTm [4] | delta Tm Staurosporine positive control [5] | ΔTm [5] | delta Tm Staurosporine positive control [6] | ΔTm [6] | delta Tm Staurosporine positive control [7] | ΔTm [7]
1 | CCC[C@@H]1CNCc2c1[nH]c(=O)c(C#N)c2N1CCC2(CC1)CC2 | 15.4 | -1.06 | 2.05 | 0.052 | 9.22 | -0.389 | -1.11 | -0.613 | 15.1 | 0.121 | 17.7 | -0.154 | 6.4 | -0.932
2 | CCC[C@H]1CNCc2c1[nH]c(=O)c(C#N)c2N1CCC2(CC1)CC2 | 15.4 | -0.579 | 2.05 | -0.142 | 9.22 | -0.11 | -1.11 | -0.626 | 15.1 | 0.134 | 17.7 | 0.00768 | 6.4 | -0.991
